These results are taken from patent publication US11730819B2, “Peptide derivatives having novel linkage structures” (priority 2016, dated 2023).

Molecules are shown by their SMILES. Several values for one entry are separate records, joined by “and”; a condition that tells them apart may be missing. Equal values may be shown once. Read-outs that look alike come from different tables or passages of the source.

In one data set the target is T1, MT1-MMP hemopexin domain (Homo sapiens, UniProt P50281).
T1 construct: residues Cys319-Gly511 from the human gene; His6 (N); made in house; host or cells: HEK293 cells (transient, pEXPR-IBA42 vector)
The data set is described as follows: Fluorescence polarisation competition binding assay. To be noted: human MT1-MMP. The text has this:
The MT1-MMP hemopexin-like repeats (also known as the MT1-MMP hemopexin domain), residues Cys319-Gly511 from the human gene, were transiently expressed in HEK293 cells as secreted N-terminally His6-tagged soluble protein, using the pEXPR-IBA42 (IBA) expression vector. Following expression, the protein was purified by Nickel-NTA affinity chromatography followed by gel filtration, and purity was checked by SDS-PAGE. Batch to batch variability was also monitored by fluorescence thermal shift experiments in the presence/absence of a hemopexin domain binding bicycle.
(§1) Binding affinity was measured using competition assays using Fluorescence Polarisation (anisotropy).
Fluoresceination may be performed on the N-terminal amino group of the peptide, which is separated from the bicycle core sequence by a sarcosine spacer (usually Sar5). This can be done during Fmoc solid phase synthesis or post-synthetically (after cyclisation with TBMB and purification) if the N-terminal amino group is unique to the peptide. Fluoresceination can also be performed on the C-terminus, usually on a Lysine introduced as the first C-terminal residue, which is then separated from the bicycle core sequence by a sarcosine spacer (usually Sar6). Thus, N-terminal tracers can have a molecular format described as Fluo-Gly-Sar5-A(BicycleCoreSequence), and (BicycleCoreSequence)-A-Sar6-K(Fluo) for a C-terminally fluoresceinated construct. Fluorescent tracers used in the Examples are A-(17-69)-A-Sar6-K(Fluo), A-(17-69-07)-A-Sar6-K(Fluo), and A-(17-69-12)-A-Sar6-K(Fluo).
(§2) Here, a pre-formed complex of PEX with the fluorescent PEX-binding tracer is titrated with free, non-fluoresceinated bicyclic peptide. Since all 17-69-based peptides are expected to bind at the same site, the titrant will displace the fluorescent tracer from PEX. Dissociation of the complex can be measured quantitatively, and the Kd of the competitor (titrant) to the target protein determined. The advantage of the competition method is that the affinities of non-fluoresceinated bicyclic peptides can be determined accurately and rapidly.
(§3) Subsequently, the non-fluorescent competitor bicyclic peptide (usually just the bicycle core sequence) is titrated, such that it displaces the fluorescent tracer from the target protein. The displacement of the tracer is measured and associated with a drop in fluorescence polarisation. The drop in fluorescence polarisation is proportional to the fraction of target protein bound with the non-fluorescent titrant, and thus is a measure of the affinity of titrant to target protein.
The raw data is fit to the analytical solution of the cubic equation that describes the equilibria between fluorescent tracer, titrant, and binding protein. The fit requires the value of the affinity of fluorescent tracer to the target protein, which can be determined separately by direct binding FP experiments (see previous section).

The next data set concerns the target MT1-MMP (Homo sapiens, UniProt P50281). As to the kind of experiment: SPR binding. Conditions: read-out: Binding Affinity Kd (SPR).
Data set [1] is described as follows: Plasma stability in mouse serum. It is filed as in vitro ADME. Conditions: 4 μm concentration, read-out: T1/2 in mouse serum. The text has this:
(§4) The stability appears to be slightly greater than that of the corresponding conjugates in which the peptide is linked to the scaffold by three thioether linkages.

Data set [2] can be described thus: Plasma stability in human serum. It is filed as in vitro ADME. Conditions: 4 μm concentration, read-out: T1/2 in human serum.
Source text: as §4

A further data set has as its target rat/mouse MT1-MMP (Mus musculus, UniProt P53690). The data set is described as follows: Binding affinity to rat/mouse MT1-MMP, measured as previously described. Conditions: Binding Affinity (Ki in nM) rat/mouse ki, bicycle peptide-drug conjugates, two values given. How it is done: as §1, §2, §3
The raw data is fit to the analytical solution of the cubic equation that describes the equilibria between fluorescent tracer, titrant, and binding protein. The fit requires the value of the affinity of fluorescent tracer to the target protein, which can be determined separately by direct binding FP experiments (see previous section). The curve fitting was performed using Sigmaplot 12.0 and used an adapted version of the equation described by Zhi-Xin Wang (FEBS Letters 360 (1995) 111-114).
The in vitro binding affinities of the bicycle peptide-drug conjugates prepared above were measured for MT1-MMP as previously described herein.

The subject of another data set is HT1080 tumor cells. The data set is described as follows: In vivo efficacy against HT1080 tumors in BALB/c nude mice. To be noted: biw dosing, BALB/c nude mice with HT1080 tumors. As for the experimental part:
HT1080 tumor cells were maintained in vitro as a monolayer culture in EMEM medium supplemented with 10% heat inactivated fetal bovine serum at 37 C in an atmosphere of 5% CO2 and air. The tumor cells were routinely subcultured twice weekly by trypsin-EDTA treatment. The cells growing in an exponential growth phase were harvested and counted for tumor inoculation.
BALB/c nude mice were inoculated subcutaneously at the right flank with HT1080 tumor cells […] in 0.2 ml of PBS for tumor development. 39 animals were randomized when the average tumor volume reached […].
The BDC compounds were formulated at 0.03 mg/ml in a vehicle buffer containing 25 mM histidine and 10% Sucrose. The formulations were administered twice weekly (biw) at 0.3, 1, 3 and 10 mg/kg. Tumor volume and body weight were measured up to 14 days from the first dosing.

[3] abbreviates: Binding Affinity (Ki in nM) Human ki, bicycle peptide-drug conjugates, two values given.

What is called Ki is the dissociation constant of the complex between target and ligand, obtained from inhibition or displacement. By Kd is commonly meant the equilibrium constant for the complex coming apart. `C#CCCC(=O)NCCC(=O)N(C)CC(=O)N(C)CC(=O)N(C)CC(=O)N(C)CC(=O)N(C)CC(=O)N(C)CC(=O)N(C)CC(=O)N(C)CC(=O)N(C)CC(=O)N(C)CC(=O)N[C@@H](C)C(=O)N[C@H]1CN(C)Cc2cc3cc(c2)CN(C)C[C@@H](C(N)=O)NC(=O)[C@H](C(C)(C)C)NC(=O)[C@H](CC(=O)O)NC(=O)[C@H](Cc2ccc(O)cc2)NC(=O)[C@H](Cc2ccccc2)NC(=O)[C@H](CC(=O)O)NC(=O)[C@H](CCC(=O)O)NC(=O)[C@H](CSC3)NC(=O)[C@@H](C)NC(=O)[C@H](Cc2cccc3ccccc23)NC(=O)[C@H](CCC(=O)O)NC(=O)[C@H](CC(N)=O)NC(=O)[C@@H](C)NC1=O` [17-69-07-N450, (PYA)-(B-Ala)-Sar10-A(Dap(Me))(D-Ala)NE(1Nal)(D-Ala)CEDFYD(tBuGly)(Dap(Me))]: on MT1-MMP hemopexin domain (bicycle peptides, read-out: Binding Affinity Ki (h)), the Ki came to 3.7 nM. At MT1-MMP, the Kd worked out at 1.91 nM.

`CC[C@H](C)[C@@H]([C@@H](CC(=O)N1CCC[C@H]1[C@H](OC)[C@@H](C)C(=O)N[C@H](C)[C@@H](O)c1ccccc1)OC)N(C)C(=O)[C@@H](NC(=O)[C@H](C(C)C)N(C)C(=O)OCc1ccc(NC(=O)[C@H](CCCNC(N)=O)NC(=O)[C@@H](NC(=O)Cn2cc(CCC(=O)NCCC(=O)N(C)CC(=O)N(C)CC(=O)N(C)CC(=O)N(C)CC(=O)N(C)CC(=O)N(C)CC(=O)N(C)CC(=O)N(C)CC(=O)N(C)CC(=O)N(C)CC(=O)N[C@@H](C)C(=O)N[C@H]3CNCc4cc5cc(c4)CSC[C@H](NC(=O)[C@@H](C)NC(=O)[C@H](Cc4cccc6ccccc46)NC(=O)[C@H](CCC(=O)O)NC(=O)[C@H](CC(N)=O)NC(=O)[C@@H](C)NC3=O)C(=O)N[C@@H](CCC(=O)O)C(=O)N[C@@H](CC(=O)O)C(=O)N[C@@H](Cc3ccccc3)C(=O)N[C@@H](Cc3ccc(O)cc3)C(=O)N[C@@H](CC(=O)O)C(=O)N[C@@H](C(C)(C)C)C(=O)N[C@H](C(N)=O)CNC5)nn2)C(C)C)cc1)C(C)C` [BT17BDC-53]: the Ki was 3.6 nM and 2.5 nM at MT1-MMP hemopexin domain (setting [3]); 1.8 nM and 1.6 nM on rat/mouse MT1-MMP. For the same molecule, the half-life at 4 μm in data set [1] and in data set [2] was over 50 h each time.

In the case of `CC[C@H](C)[C@@H]([C@@H](CC(=O)N1CCC[C@H]1[C@H](OC)[C@@H](C)C(=O)N[C@H](C)[C@@H](O)c1ccccc1)OC)N(C)C(=O)[C@@H](NC(=O)[C@H](C(C)C)N(C)C(=O)OCc1ccc(NC(=O)[C@H](CCCNC(N)=O)NC(=O)[C@@H](NC(=O)Cn2cc(CCC(=O)N[C@@H](C)C(=O)N[C@H]3CNCc4cc5cc(c4)CSC[C@H](NC(=O)[C@@H](C)NC(=O)[C@H](Cc4cccc6ccccc46)NC(=O)[C@H](CCC(=O)O)NC(=O)[C@H](CC(N)=O)NC(=O)[C@@H](C)NC3=O)C(=O)N[C@@H](CCC(=O)O)C(=O)N[C@@H](CC(=O)O)C(=O)N[C@@H](Cc3ccccc3)C(=O)N[C@@H](Cc3ccc(O)cc3)C(=O)N[C@@H](CC(=O)O)C(=O)N[C@@H](C(C)(C)C)C(=O)N[C@H](C(N)=O)CNC5)nn2)C(C)C)cc1)C(C)C` [BT17BDC-59], the Ki is 2.8 nM and 2.7 nM on MT1-MMP hemopexin domain (setting [3]); 1.8 nM and 1.7 nM at rat/mouse MT1-MMP. Moreover, in the data set with HT1080 tumor cells, the tolerated dose result is “up to 3 mg/kg”.
